Holding throughout (type): in vivo
In one test the test system is Maize. Nature of the test: Post-emergence herbicidal test, young pot plants (Example 33). Further details: key: 0 is 0 to 20% damage; 5 is complete kill. Particulars: 2.0 kg/ha, after 14 days. The method in brief:
(§1)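 Compounds were emulsified with Span 80 and Tween 20 in methylcyclohexanone, diluted with water and sprayed. Post-emergence, young pot plants were sprayed and scored at 14 days. Pre-emergence, seeds sown in fibre-tray soil were sprayed, thinly covered with fresh soil and scored at 21 days (0 = 0–20% damage, 5 = complete kill).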

Another test relates to Rice. The test is described as above. Particulars: 2.0 kg/ha, after 14 days. On the set-up: key: 0 is 0 to 20% damage; 5 is complete kill. The method in brief: as §1
Test [1] concerns Polygonum aviculare. Nature of the test: Pre-emergence herbicidal test, fibre trays (Example 33). Particulars: 2.0 kg/ha, after 21 days. The method in brief:
as §1

The test system of a further test is Chenopodium album. The description is as above. Particulars: 2.0 kg/ha, after 21 days. The method in brief: as §1
For test [2], the system named is Senecio vulgaris. Described as above. Particulars: 2.0 kg/ha, after 21 days. The method in brief: as §1
The test system of another test is Amaranthus retroflexus. The description is as above. To be noted: 2.0 kg/ha, after 21 days. The method in brief:
as §1

The subject of a further test is Ipomea purpurea. Described as above. To be noted: 2.0 kg/ha, after 21 days. The method in brief:
as §1

A further test has as its system Rape. Nature of the test: Post-emergence herbicidal test, young pot plants (Example 33). Particulars: 2.0 kg/ha, after 14 days. The method in brief:
as §1

The test system of test [3] is Polygonum aviculare. The test is described as above. To be noted: 2.0 kg/ha, after 14 days. The method in brief:
as §1

Test [4] relates to Senecio vulgaris. The test is described as above. Particulars: 2.0 kg/ha, after 14 days. The method in brief: as §1
Another test deals with Wheat. The experiment in a line: Pre-emergence herbicidal activity (Example 31). Further details: key: 0-3 scale: 0 = 0-25% damage, 3 = 75-99% kill, 3+ = 100% kill. To be noted: after three weeks. The method in brief: (§2)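 Seeded soil boxes (seeds at 2 cm) were sprayed with water-diluted emulsifiable concentrates or milled suspensions, then held under glass. Three weeks later, visual scoring: 0 = 0–25% damage, 3 = 75–99% kill, 3+ = complete kill; unsprayed duplicate boxes as reference.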

The test system of the next test is Japanese millet. Nature of the test: Pre-emergence herbicidal activity (Example 31). Particulars: after three weeks. The method in brief:
as §2

The next test concerns Wild Oats. The experiment in a line: Pre-emergence herbicidal activity (Example 31). To be noted: after three weeks. The method in brief:
as §2

In another test the test system is Ipomea. The experiment in a line: Pre-emergence herbicidal activity (Example 31). To be noted: after three weeks. The method in brief: as §2
A further test relates to Sunflower. The experiment in a line: Pre-emergence herbicidal activity (Example 31). To be noted: after three weeks. The method in brief:
as §2

For another test, the system named is Mustard. Nature of the test: Pre-emergence herbicidal activity (Example 31). To be noted: after three weeks. The method in brief:
as §2

The values that follow come from EP0013144A1, “Substituted diphenylamine derivatives, compositions and herbicidal uses thereof, and processes for their preparation” (ICI AUSTRALIA LIMITED, priority 1978, dated 1980).

Regarding `COC(=O)C(C)Oc1ccc(N(C)c2ccc(Br)cc2[N+](=O)[O-])cc1` (stereo not shown) [Compound 30], the “damage to test plants, Mz” value in the test on Maize was 5. Moreover, the “damage to test plants, Rc” value in the test on Rice came out at 4. The “herbicidal damage, Pi” value in the test with Polygonum aviculare [1] is reported as 0 (0 is 0 to 20% damage). For the same compound, the “herbicidal damage, Ca” value in the test with Chenopodium album was 0 (0 is 0 to 20% damage). In addition, the “herbicidal damage, Sn” value with Senecio vulgaris [2] stood at 2. Also, the “herbicidal damage, Am” value in the test with Amaranthus retroflexus amounted to 1. For the same compound, in the test with Ipomea purpurea, the “herbicidal damage, Ip” value is on record as 0 (0 is 0 to 20% damage). Further, the “damage to test plants, Rp” value with Rape is listed as 1. Moreover, the “damage to test plants, Pi” value with Polygonum aviculare [3] is 0 (0 is 0 to 20% damage). Further, in the test on Senecio vulgaris [4], the “damage to test plants, Sn” value came to 2. Also, the “damage to plants, Wh” value with Wheat (1 kg/ha) and in the test with Wheat (5 kg/ha) was 0 (0 represents from 0 to 25% damage) throughout. Moreover, the “damage to plants, Jm” value in the test with Japanese millet (1 kg/ha) is on record as 1; in the test with Japanese millet (5 kg/ha), 3 (3 represents 75 to 99% kill). Also, the entries for the “damage to plants, Ot” value in the test on Wild Oats (1 kg/ha) and in the test on Wild Oats (5 kg/ha) were 1 and 3 (3 represents 75 to 99% kill), respectively. The “damage to plants, Ip” value in the test on Ipomea (1 kg/ha) and in the test on Ipomea (5 kg/ha) was 0 (0 represents from 0 to 25% damage) throughout. The “damage to plants, Sf” value in the test on Sunflower (1 kg/ha) and with Sunflower (5 kg/ha) was 0 (0 represents from 0 to 25% damage) in each case. The entries for the “damage to plants, Ms” value with Mustard (1 kg/ha) and in the test with Mustard (5 kg/ha) were 1 and 2, respectively.
